Reference: ChEMBL document CHEMBL1136637, “Prodrugs to enhance central nervous system effects of the TRH-like peptide pGlu-Glu-Pro-NH2” (Bioorg Med Chem Lett, 2003)
Square brackets hold non-standard residues; d marks the D form. Peptide text beside a SMILES is read from it. * marks the point of attachment. ξ: configuration not given here. pGlu = O=C1CC[C@@H](C(=O)O)N1; ξE = NC(CCC(=O)O)C(=O)O; OcHex = C1CCC(O*)CC1; OBn = c1ccc(CO*)cc1; OtBu = CC(C)(C)O*

Columns and labels:
[1] = species: Mus musculus; test: (§1) Effective dose required for producing 50% of the maximum analeptic response was determined; format: functional
[2] = Half-life using mouse brain homogenate; format: ADME
[3] = species: Mus musculus; test: as §1; format: functional, organism-based

Row | Compound | half-life [2] [min] | EC50 [3] [µM/kg] | ED50 [1] [µmol/kg]
1 | NC(=O)[C@@H]1CCCN1C(=O)C(CCC(=O)OCc1ccccc1)NC(=O)[C@@H]1CCC(=O)N1 (some centres not stated) ([pGlu]-[ξE](OBn)-Pro-NH2) | > 120 |  | 
2 | NC(=O)[C@@H]1CCCN1C(=O)C(CCC(=O)OC1CCCCC1)NC(=O)[C@@H]1CCC(=O)N1 (some centres not stated) ([pGlu]-[ξE](OcHex)-Pro-NH2) | 25 |  | 
3 | CC(C)(C)OC(=O)CCC(NC(=O)[C@@H]1CCC(=O)N1)C(=O)N1CCC[C@H]1C(N)=O (some centres not stated) ([pGlu]-[ξE](OtBu)-Pro-NH2) | 70 |  | 

Now from value to molecule, other results behind:

Row | half-life [2] [min] | EC50 [3] [µM/kg] | Compound | ED50 [1] [µmol/kg]
4 | 22 |  | CCCCCCOC(=O)CCC(NC(=O)[C@@H]1CCC(=O)N1)C(=O)N1CCC[C@H]1C(N)=O (some centres not stated) | 2.4
5 |  | 23.2 | NC(=O)[C@@H]1CCCN1C(=O)[C@H](CCC(=O)O)NC(=O)[C@@H]1CCC(=O)N1 ([pGlu]-Glu-Pro-NH2) | 
6 | 20 |  | COC(=O)CCC(NC(=O)[C@@H]1CCC(=O)N1)C(=O)N1CCC[C@H]1C(N)=O (some centres not stated) ([pGlu]-[ξE](OMe)-Pro-NH2) | 
